Patent publication US10479784B2, “Substituted pyrazin-2-amines as inhibitors of ATR kinase” (Vertex Pharmaceuticals Incorporated, priority 2008, dated 2019)

Each compound was assayed against full-length ATR (Homo sapiens (Human), UniProt Q13535) (assay: ATR Inhibition Assay (radioactive-phosphate incorporation)). Conditions: read-out: ATR Ki.
Sequence of full-length ATR (Q13535 whole entry): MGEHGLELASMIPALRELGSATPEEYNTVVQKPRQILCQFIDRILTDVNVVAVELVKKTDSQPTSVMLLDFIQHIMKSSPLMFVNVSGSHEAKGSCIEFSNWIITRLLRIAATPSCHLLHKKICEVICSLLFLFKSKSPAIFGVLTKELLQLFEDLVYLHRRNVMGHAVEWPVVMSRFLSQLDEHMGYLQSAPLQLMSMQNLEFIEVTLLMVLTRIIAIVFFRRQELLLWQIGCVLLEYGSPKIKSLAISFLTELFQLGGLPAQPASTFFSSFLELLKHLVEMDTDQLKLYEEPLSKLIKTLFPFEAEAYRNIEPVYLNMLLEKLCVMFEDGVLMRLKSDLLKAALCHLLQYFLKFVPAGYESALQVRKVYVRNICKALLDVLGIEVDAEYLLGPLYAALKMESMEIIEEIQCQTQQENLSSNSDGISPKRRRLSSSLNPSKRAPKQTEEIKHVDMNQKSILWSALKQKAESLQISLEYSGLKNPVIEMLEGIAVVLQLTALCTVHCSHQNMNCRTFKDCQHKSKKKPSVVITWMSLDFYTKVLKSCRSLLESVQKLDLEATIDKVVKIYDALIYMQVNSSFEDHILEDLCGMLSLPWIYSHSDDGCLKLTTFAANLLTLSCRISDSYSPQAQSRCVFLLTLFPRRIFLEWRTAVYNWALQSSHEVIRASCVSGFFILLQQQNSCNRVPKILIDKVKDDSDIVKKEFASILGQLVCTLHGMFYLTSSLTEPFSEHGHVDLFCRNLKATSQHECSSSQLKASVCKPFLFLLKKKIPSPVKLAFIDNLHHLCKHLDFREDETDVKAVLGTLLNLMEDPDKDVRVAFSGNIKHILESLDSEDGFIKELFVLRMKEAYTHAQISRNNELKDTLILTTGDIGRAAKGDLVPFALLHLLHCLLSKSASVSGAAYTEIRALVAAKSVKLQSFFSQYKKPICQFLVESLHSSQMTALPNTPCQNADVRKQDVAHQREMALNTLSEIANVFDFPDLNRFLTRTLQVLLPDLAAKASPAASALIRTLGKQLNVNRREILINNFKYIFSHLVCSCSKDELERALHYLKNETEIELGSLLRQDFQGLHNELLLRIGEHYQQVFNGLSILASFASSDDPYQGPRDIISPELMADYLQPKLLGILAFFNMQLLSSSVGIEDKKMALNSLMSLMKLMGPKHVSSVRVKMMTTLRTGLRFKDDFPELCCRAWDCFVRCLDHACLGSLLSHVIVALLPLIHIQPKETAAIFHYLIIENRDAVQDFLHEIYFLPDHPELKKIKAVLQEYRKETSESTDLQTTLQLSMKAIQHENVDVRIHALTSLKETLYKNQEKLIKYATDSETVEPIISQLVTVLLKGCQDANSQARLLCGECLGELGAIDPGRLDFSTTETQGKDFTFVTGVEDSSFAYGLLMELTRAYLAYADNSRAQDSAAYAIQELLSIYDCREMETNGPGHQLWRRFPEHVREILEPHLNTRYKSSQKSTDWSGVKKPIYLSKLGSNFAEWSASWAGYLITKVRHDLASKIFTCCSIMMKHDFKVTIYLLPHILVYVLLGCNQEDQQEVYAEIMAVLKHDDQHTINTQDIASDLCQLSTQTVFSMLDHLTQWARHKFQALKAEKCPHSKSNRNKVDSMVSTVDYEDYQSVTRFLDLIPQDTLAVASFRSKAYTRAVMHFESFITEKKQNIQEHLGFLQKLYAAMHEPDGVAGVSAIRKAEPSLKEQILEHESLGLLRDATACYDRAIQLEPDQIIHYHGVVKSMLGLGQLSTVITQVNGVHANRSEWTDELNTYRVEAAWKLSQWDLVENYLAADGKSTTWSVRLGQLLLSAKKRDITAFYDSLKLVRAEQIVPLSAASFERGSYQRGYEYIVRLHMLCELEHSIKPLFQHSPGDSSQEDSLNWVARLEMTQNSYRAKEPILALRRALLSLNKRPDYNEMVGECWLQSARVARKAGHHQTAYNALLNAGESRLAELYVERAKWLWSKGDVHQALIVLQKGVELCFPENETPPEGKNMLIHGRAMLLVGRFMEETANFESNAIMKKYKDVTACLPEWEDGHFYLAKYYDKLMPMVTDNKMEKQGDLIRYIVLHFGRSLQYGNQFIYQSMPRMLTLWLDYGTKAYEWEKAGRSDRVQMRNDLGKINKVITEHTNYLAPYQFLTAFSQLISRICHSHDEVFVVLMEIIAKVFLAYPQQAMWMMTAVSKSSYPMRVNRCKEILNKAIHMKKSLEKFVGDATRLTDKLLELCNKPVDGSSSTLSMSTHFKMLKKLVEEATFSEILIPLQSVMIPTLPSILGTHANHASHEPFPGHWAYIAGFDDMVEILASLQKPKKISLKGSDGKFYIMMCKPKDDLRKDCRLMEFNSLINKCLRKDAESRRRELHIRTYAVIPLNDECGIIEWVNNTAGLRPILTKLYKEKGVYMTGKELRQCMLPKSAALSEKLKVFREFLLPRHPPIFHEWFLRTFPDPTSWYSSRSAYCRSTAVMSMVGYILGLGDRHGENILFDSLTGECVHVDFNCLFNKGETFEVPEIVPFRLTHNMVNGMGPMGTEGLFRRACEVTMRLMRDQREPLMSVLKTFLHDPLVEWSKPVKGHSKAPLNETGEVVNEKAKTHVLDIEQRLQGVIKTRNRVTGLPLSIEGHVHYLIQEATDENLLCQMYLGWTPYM
Format: biochemical
In short: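 Ki(app) was derived by non-linear regression of background-corrected initial rates of 33P incorporation into an 800 μM target peptide, read by phosphocellulose filter scintillation counting. Reaction conditions: 5 nM full-length ATR, 10 μM [γ-33P]ATP, pH 7.5 Tris buffer with MgCl2 and DTT, 25 °C, 10-min preincubation, 24 h run.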
Work on `COC1CN(C(=O)c2ccc(-c3cnc(N)c(C(=O)Nc4ccccc4)n3)cc2)C1` [Compound I-44, 3-amino-6-(4-(3-methoxyazetidine-1-carbonyl)phenyl)-N-phenylpyrazine-2-carboxamide] yielded a Ki of 10 to 100 nM.
With `CNC(C)c1ccc(-c2nnc(-c3nc(-c4ccc(S(=O)(=O)C(C)C)cc4)cnc3N)o2)cc1` (stereo not drawn) [IA-212, 5-(4-isopropylsulfonylphenyl)-3-[5-[4-[1-(methylamino)ethyl]phenyl]-1,3,4-oxadiazol-2-yl]pyrazin-2-amine] the Ki was at most 10 nM.
Compound `CNCc1ccc(-c2nnc(-c3nc(-c4ccc(S(=O)(=O)C(C)C)cn4)cnc3N)o2)cc1` [IA-300, 5-(5-isopropylsulfonyl-2-pyridyl)-3-[5-[4-(methylaminomethyl)phenyl]-1,3,4-oxadiazol-2-yl]pyrazin-2-amine] has a Ki of at most 10 nM.
For `CC(C)S(=O)(=O)c1ccc(-c2cnc(N)c(-c3nnc(-c4ccc(CNC5CC5)cc4)o3)n2)cc1` [IA-158, 3-[5-[4-[(cyclopropylamino)methyl]phenyl]-1,3,4-oxadiazol-2-yl]-5-(4-isopropylsulfonylphenyl)pyrazin-2-amine], the Ki was at most 10 nM.
With `CNCc1ccc(-c2cc(-c3nc(-c4ccc(S(=O)(=O)C(C)C)cc4)cnc3N)on2)c(C)c1` [IIA-12, 5-(4-isopropylsulfonylphenyl)-3-[3-[2-methyl-4-(methylaminomethyl)phenyl]isoxazol-5-yl]pyrazin-2-amine] the Ki was at most 10 nM.
In the case of `Nc1ncc(-c2cccc3cccnc23)nc1-c1nnc(-c2ccccc2)o1` [IA-216, 3-(5-phenyl-1,3,4-oxadiazol-2-yl)-5-(8-quinolyl)pyrazin-2-amine], the Ki is reported as 100 to 5000 nM.
`Nc1ncc(-c2ccc(C(=O)N3CCCNCC3)cc2)nc1C(=O)Nc1nc2ccccc2[nH]1` [Compound V-10] was tested, and the Ki was at most 10 nM.
With `Nc1ncc(-c2cccc(C(=O)N3CCNCC3)c2)nc1C(=O)Nc1ccccc1` [Compound I-53, 3-amino-N-phenyl-6-(3-(piperazine-1-carbonyl)phenyl) pyrazine-2-carboxamide] the Ki was 100 to 5000 nM.
`Nc1ncc(-c2cccnc2)nc1C(=O)Nc1cccc2c1OC(F)(F)O2` [Compound I-99, 3-amino-N-(2,2-difluorobenzo[d][1,3]dioxol-4-yl)-6-(pyridin-3-yl)pyrazine-2-carboxamide] gave a Ki of 100 to 5000 nM.
`CNC(=N)c1ccc(-c2nnc(-c3nc(-c4ccc(S(=O)(=O)C(C)C)cc4)cnc3N)o2)cc1` [IA-208, 4-[5-[3-amino-6-(4-isopropylsulfonylphenyl)pyrazin-2-yl]-1,3,4-oxadiazol-2-yl]-N-methyl-benzamidine] showed a Ki of at most 10 nM.
Compound `COc1ccc(C)cc1NC(=O)c1nc(-c2cccnc2)cnc1N` [Compound I-108, 3-amino-N-(2-methoxy-5-methylphenyl)-6-(pyridin-3-yl)pyrazine-2-carboxamide] has a Ki of at most 10 nM.
With `Nc1ncc(-c2ccc(C(=O)N3CCCNCC3)cc2)nc1C(=O)Nc1cc2ccccc2[nH]1` [Compound V-26] the Ki was 100 to 5000 nM.
`CNCc1ccc(NC(=O)c2nc(-c3ccc(S(=O)(=O)C(C)C)cc3)cnc2N)cc1` [VII-11] was tested, and the Ki was 10 to 100 nM.
With `CC(C)S(=O)(=O)c1ccc(-c2cnc(N)c(-c3nnc(-c4ccc(CN)s4)o3)n2)cc1` [IA-173, 3-[5-[5-(aminomethyl)-2-thienyl]-1,3,4-oxadiazol-2-yl]-5-(4-isopropylsulfonylphenyl)pyrazin-2-amine] the Ki was at most 10 nM.
With `CC(C)S(=O)(=O)c1ccc(-c2cnc(N)c(-c3nnc(-c4ccc5c(c4)CCNC5)o3)n2)cc1` [IA-145, 5-(4-isopropylsulfonylphenyl)-3-[5-(1,2,3,4-tetrahydroisoquinolin-6-yl)-1,3,4-oxadiazol-2-yl]pyrazin-2-amine] the Ki was at most 10 nM.
In the case of `CC(C)S(=O)(=O)c1ccc(-c2cnc(N)c(-c3nnc(-c4ccc(C(N)C(F)(F)F)cc4)o3)n2)cc1` (stereo in doubt) [IA-325, 3-[5-[4-[(1S)-1-amino-2,2,2-trifluoro-ethyl]phenyl]-1,3,4-oxadiazol-2-yl]-5-(4-isopropylsulfonylphenyl)pyrazin-2-amine], the Ki is reported as 10 to 100 nM.
For `NC(=O)c1cccc(-c2cnc(N)c(C(=O)Nc3ccccc3)n2)c1` [Compound I-18, 3-amino-6-(3-carbamoylphenyl)-N-phenylpyrazine-2-carboxamide], the Ki was 100 to 5000 nM.
Compound `CCS(=O)(=O)c1ccccc1-c1cnc(N)c(-c2nnc(-c3ccccc3)o2)n1` [IA-203, 5-(2-ethylsulfonylphenyl)-3-(5-phenyl-1,3,4-oxadiazol-2-yl)pyrazin-2-amine] has a Ki of 100 to 5000 nM.
`CC(C)S(=O)(=O)c1ccc(-c2cnc(N)c(-c3nnc(NC(=O)CN)o3)n2)cc1` [IA-82, 2-amino-N-[5-[3-amino-6-(4-isopropylsulfonylphenyl)pyrazin-2-yl]-1,3,4-oxadiazol-2-yl]acetamide] was tested, and the Ki was 100 to 5000 nM.
In the case of `CN(C)C(=O)c1ccc(-c2cnc(N)c(-c3nnc(-c4cccc(N)n4)o3)n2)cc1` [IA-231, 4-[5-amino-6-[5-(6-amino-2-pyridyl)-1,3,4-oxadiazol-2-yl]pyrazin-2-yl]-N,N-dimethyl-benzamide], the Ki is reported as 10 to 100 nM.
`COC(=O)c1ccccc1-c1cnc(N)c(-c2nnc(-c3ccccc3)o2)n1` [IA-105, methyl 2-[5-amino-6-(5-phenyl-1,3,4-oxadiazol-2-yl)pyrazin-2-yl]benzoate] was tested, and the Ki was 100 to 5000 nM.
`CN(C)C(=O)c1ccc(-c2cnc(N)c(-c3nnc(-c4ccc(O)cc4)o3)n2)cc1` [IA-87, 4-[5-amino-6-[5-(4-hydroxyphenyl)-1,3,4-oxadiazol-2-yl]pyrazin-2-yl]-N,N-dimethyl-benzamide] was tested, and the Ki was at most 10 nM.
Work on `CN(C)C(=O)c1ccc(-c2cnc(N)c(-c3nnc(-c4ccnc(N)c4)o3)n2)cc1` [IA-223, 4-[5-amino-6-[5-(2-amino-4-pyridyl)-1,3,4-oxadiazol-2-yl]pyrazin-2-yl]-N,N-dimethyl-benzamide] yielded a Ki of 10 to 100 nM.
`CC(C)S(=O)(=O)c1ccc(-c2cnc(N)c(-c3nnc(C4=CCN(C(=O)OC(C)(C)C)CC4)o3)n2)cc1` [IA-95, tert-butyl 4-[5-[3-amino-6-(4-isopropylsulfonylphenyl)pyrazin-2-yl]-1,3,4-oxadiazol-2-yl]-3,6-dihydro-2H-pyridine-1-carboxylate] was tested, and the Ki was 100 to 5000 nM.
With `CC(C)S(=O)(=O)c1ccc(-c2cnc(N)c(-c3nnc(-c4cccc(CN)c4)o3)n2)cc1` [IA-220, 3-[5-[3-(aminomethyl)phenyl]-1,3,4-oxadiazol-2-yl]-5-(4-isopropylsulfonylphenyl)pyrazin-2-amine] the Ki was at most 10 nM.
In the case of `CNCc1cccc(-c2nnc(-c3nc(-c4ccc(S(=O)(=O)C(C)C)cc4)cnc3N)o2)c1` [IA-146, 5-(4-isopropylsulfonylphenyl)-3-[5-[3-(methylaminomethyl)phenyl]-1,3,4-oxadiazol-2-yl]pyrazin-2-amine], the Ki is reported as at most 10 nM.
For `NC(=O)Cc1ccccc1-c1cnc(N)c(-c2nnc(-c3ccccc3)o2)n1` [IA-266, 2-[2-[5-amino-6-(5-phenyl-1,3,4-oxadiazol-2-yl)pyrazin-2-yl]phenyl]acetamide], the Ki was 10 to 100 nM.
`Nc1ncc(-c2ccc(C(=O)NC3CCOCC3)cc2)nc1C(=O)Nc1ccccc1` [Compound I-47, 3-amino-N-phenyl-6-(4-(tetrahydro-2H-pyran-4-ylcarbamoyl)phenyl)pyrazine-2-carboxamide] was tested, and the Ki was 10 to 100 nM.
`CN(C)C(=O)c1ccc(-c2cnc(N)c(-c3nnc(-c4ccccn4)o3)n2)cc1` [IA-51] gave a Ki of 10 to 100 nM.
With `CC(=O)Nc1nnc(-c2nc(-c3ccc(S(=O)(=O)C(C)C)cc3)cnc2N)o1` [IA-177, N-[5-[3-amino-6-(4-isopropylsulfonylphenyl)pyrazin-2-yl]-1,3,4-oxadiazol-2-yl]acetamide] the Ki was 10 to 100 nM.
